Experimental data published in the kinase profiling compilation of Christmann-Franck et al. (2016).

Each compound was assayed against MAP3K8 (human) (UniProt P41279) (assay: radiometric filter-binding kinase assay, Kinase HotSpot). Details: compound 0.5 µM; ATP 10 µM.

| SMILES | residual activity [%] |
| --- | --- |
| Oc1ccc(-c2nc(-c3ccc(F)cc3)c(-c3ccncc3)[nH]2)cc1 | 96.6 |
| COc1cc2ncnc(Nc3ccc(F)c(Cl)c3)c2cc1OCCCN1CCOCC1 | 95.7 |
| COc1ccc(-c2cnc3c(-c4ccsc4)cnn3c2)cc1 | 105 |

Each compound was assayed against MAPK1 (human) (UniProt P28482) in the same assay as above. Details: compound 0.5 µM; ATP 10 µM.
Chain of MAPK1 (human) (P28482 whole entry, looked up): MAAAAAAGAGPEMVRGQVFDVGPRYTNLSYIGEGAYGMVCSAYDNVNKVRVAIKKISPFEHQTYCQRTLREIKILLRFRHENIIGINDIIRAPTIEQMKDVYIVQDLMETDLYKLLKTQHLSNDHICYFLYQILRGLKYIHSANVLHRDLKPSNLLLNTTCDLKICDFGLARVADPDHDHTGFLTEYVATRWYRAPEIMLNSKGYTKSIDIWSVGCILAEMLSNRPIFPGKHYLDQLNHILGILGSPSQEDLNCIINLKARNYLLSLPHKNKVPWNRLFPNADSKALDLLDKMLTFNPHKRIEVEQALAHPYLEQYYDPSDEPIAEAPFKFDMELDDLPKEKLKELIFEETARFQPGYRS

| SMILES | residual activity [%] |
| --- | --- |
| O=C(Nc1ccc(Cl)cc1)c1ccccc1NCc1ccncc1 | 94.7 |
| Oc1ccc(-c2nc(-c3ccc(F)cc3)c(-c3ccncc3)[nH]2)cc1 | 97.2 |
| COc1cc2ncnc(Nc3ccc(F)c(Cl)c3)c2cc1OCCCN1CCOCC1 | 103 |
| COc1ccc(-c2cnc3c(-c4ccsc4)cnn3c2)cc1 | 99.2 |

Each compound was assayed against MARK3 (human) (UniProt P27448) in the same assay as above. Details: compound 0.5 µM; ATP 10 µM.

| SMILES | residual activity [%] |
| --- | --- |
| O=C(Nc1ccc(Cl)cc1)c1ccccc1NCc1ccncc1 | 93.1 |
| Oc1ccc(-c2nc(-c3ccc(F)cc3)c(-c3ccncc3)[nH]2)cc1 | 105 |
| COc1cc2ncnc(Nc3ccc(F)c(Cl)c3)c2cc1OCCCN1CCOCC1 | 94.5 |
| COc1ccc(-c2cnc3c(-c4ccsc4)cnn3c2)cc1 | 88.8 |

Each compound was assayed against MKNK2 (human) (UniProt Q9HBH9) in the same assay as above. Details: compound 0.5 µM; ATP 10 µM.

| SMILES | residual activity [%] |
| --- | --- |
| O=C(Nc1ccc(Cl)cc1)c1ccccc1NCc1ccncc1 | 82.3 |
| Oc1ccc(-c2nc(-c3ccc(F)cc3)c(-c3ccncc3)[nH]2)cc1 | 89.4 |
| COc1cc2ncnc(Nc3ccc(F)c(Cl)c3)c2cc1OCCCN1CCOCC1 | 54.1 |
| COc1ccc(-c2cnc3c(-c4ccsc4)cnn3c2)cc1 | 37.5 |

These compounds were tested against MYO3B (human) (UniProt Q8WXR4) in the same assay as above. Details: compound 0.5 µM; ATP 10 µM.
Chain of MYO3B (human) (Q8WXR4 whole entry, looked up): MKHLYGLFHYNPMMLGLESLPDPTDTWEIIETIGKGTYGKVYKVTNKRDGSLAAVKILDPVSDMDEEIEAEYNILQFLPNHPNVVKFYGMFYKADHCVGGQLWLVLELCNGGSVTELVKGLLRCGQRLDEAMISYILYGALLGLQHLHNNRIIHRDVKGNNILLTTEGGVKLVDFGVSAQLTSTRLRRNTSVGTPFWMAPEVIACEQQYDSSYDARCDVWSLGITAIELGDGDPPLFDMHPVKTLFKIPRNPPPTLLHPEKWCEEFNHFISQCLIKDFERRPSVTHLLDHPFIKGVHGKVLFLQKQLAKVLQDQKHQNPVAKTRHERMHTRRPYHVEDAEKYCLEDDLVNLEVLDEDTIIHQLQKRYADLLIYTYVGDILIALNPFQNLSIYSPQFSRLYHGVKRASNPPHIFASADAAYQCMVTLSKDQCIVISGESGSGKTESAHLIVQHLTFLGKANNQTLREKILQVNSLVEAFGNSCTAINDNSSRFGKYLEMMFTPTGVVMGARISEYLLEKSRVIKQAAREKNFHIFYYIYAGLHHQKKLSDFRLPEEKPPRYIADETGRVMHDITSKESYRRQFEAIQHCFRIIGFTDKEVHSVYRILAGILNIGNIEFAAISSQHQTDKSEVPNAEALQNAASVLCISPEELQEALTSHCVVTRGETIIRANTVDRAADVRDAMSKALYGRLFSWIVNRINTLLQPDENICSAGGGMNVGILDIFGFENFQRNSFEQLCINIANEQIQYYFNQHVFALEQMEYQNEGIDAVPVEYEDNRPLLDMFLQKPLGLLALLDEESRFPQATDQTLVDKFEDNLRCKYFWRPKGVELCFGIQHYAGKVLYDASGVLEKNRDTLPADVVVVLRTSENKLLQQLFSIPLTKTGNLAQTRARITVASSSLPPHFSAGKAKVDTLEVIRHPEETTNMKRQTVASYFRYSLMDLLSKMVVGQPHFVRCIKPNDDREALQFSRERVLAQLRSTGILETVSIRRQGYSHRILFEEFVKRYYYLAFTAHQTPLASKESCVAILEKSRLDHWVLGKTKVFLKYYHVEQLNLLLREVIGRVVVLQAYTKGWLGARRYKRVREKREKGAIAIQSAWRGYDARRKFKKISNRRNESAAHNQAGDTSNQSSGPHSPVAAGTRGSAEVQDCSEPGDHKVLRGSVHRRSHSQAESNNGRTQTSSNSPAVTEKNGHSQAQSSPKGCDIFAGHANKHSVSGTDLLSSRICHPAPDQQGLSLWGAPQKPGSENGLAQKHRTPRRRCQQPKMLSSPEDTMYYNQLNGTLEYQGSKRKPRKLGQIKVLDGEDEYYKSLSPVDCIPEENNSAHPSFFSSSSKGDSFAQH

| SMILES | residual activity [%] |
| --- | --- |
| O=C(Nc1ccc(Cl)cc1)c1ccccc1NCc1ccncc1 | 82 |
| Oc1ccc(-c2nc(-c3ccc(F)cc3)c(-c3ccncc3)[nH]2)cc1 | 101 |
| COc1cc2ncnc(Nc3ccc(F)c(Cl)c3)c2cc1OCCCN1CCOCC1 | 91.4 |
| COc1ccc(-c2cnc3c(-c4ccsc4)cnn3c2)cc1 | 84 |

The compounds below were run against NEK11 (human) (UniProt Q8NG66) in the same assay as above. Details: compound 0.5 µM; ATP 10 µM.

| SMILES | residual activity [%] |
| --- | --- |
| O=C(Nc1ccc(Cl)cc1)c1ccccc1NCc1ccncc1 | 104 |
| Oc1ccc(-c2nc(-c3ccc(F)cc3)c(-c3ccncc3)[nH]2)cc1 | 80.6 |
| COc1cc2ncnc(Nc3ccc(F)c(Cl)c3)c2cc1OCCCN1CCOCC1 | 109 |
| COc1ccc(-c2cnc3c(-c4ccsc4)cnn3c2)cc1 | 93.3 |

What follows are compounds tested against NUAK2 (human) (UniProt Q9H093) in the same assay as above. Details: compound 0.5 µM; ATP 10 µM.

| SMILES | residual activity [%] |
| --- | --- |
| O=C(Nc1ccc(Cl)cc1)c1ccccc1NCc1ccncc1 | 137 |
| Oc1ccc(-c2nc(-c3ccc(F)cc3)c(-c3ccncc3)[nH]2)cc1 | 128 |
| COc1cc2ncnc(Nc3ccc(F)c(Cl)c3)c2cc1OCCCN1CCOCC1 | 96 |
| COc1ccc(-c2cnc3c(-c4ccsc4)cnn3c2)cc1 | 138 |

The compounds below were run against OXSR1 (human) (UniProt O95747) in the same assay as above. Details: compound 0.5 µM; ATP 10 µM.

| SMILES | residual activity [%] |
| --- | --- |
| O=C(Nc1ccc(Cl)cc1)c1ccccc1NCc1ccncc1 | 96.8 |
| Oc1ccc(-c2nc(-c3ccc(F)cc3)c(-c3ccncc3)[nH]2)cc1 | 97.6 |
| COc1cc2ncnc(Nc3ccc(F)c(Cl)c3)c2cc1OCCCN1CCOCC1 | 101 |
| COc1ccc(-c2cnc3c(-c4ccsc4)cnn3c2)cc1 | 90.3 |

These compounds were tested against PASK (human) (UniProt Q96RG2) in the same assay as above. Details: compound 0.5 µM; ATP 10 µM.

| SMILES | residual activity [%] |
| --- | --- |
| O=C(Nc1ccc(Cl)cc1)c1ccccc1NCc1ccncc1 | 97.1 |
| Oc1ccc(-c2nc(-c3ccc(F)cc3)c(-c3ccncc3)[nH]2)cc1 | 79.3 |
| COc1cc2ncnc(Nc3ccc(F)c(Cl)c3)c2cc1OCCCN1CCOCC1 | 97.9 |
| COc1ccc(-c2cnc3c(-c4ccsc4)cnn3c2)cc1 | 79.5 |

What follows are compounds tested against PDGFRB (human) (UniProt P09619) in the same assay as above. Details: compound 0.5 µM; ATP 10 µM.

| SMILES | residual activity [%] |
| --- | --- |
| O=C(Nc1ccc(Cl)cc1)c1ccccc1NCc1ccncc1 | 45 |
| Oc1ccc(-c2nc(-c3ccc(F)cc3)c(-c3ccncc3)[nH]2)cc1 | 104 |
| COc1cc2ncnc(Nc3ccc(F)c(Cl)c3)c2cc1OCCCN1CCOCC1 | 93.9 |
| COc1ccc(-c2cnc3c(-c4ccsc4)cnn3c2)cc1 | 63.4 |

The compounds below were run against PRKACG (human) (UniProt P22612) in the same assay as above. Details: compound 0.5 µM; ATP 10 µM.
Chain of PRKACG (human) (P22612 whole entry, looked up): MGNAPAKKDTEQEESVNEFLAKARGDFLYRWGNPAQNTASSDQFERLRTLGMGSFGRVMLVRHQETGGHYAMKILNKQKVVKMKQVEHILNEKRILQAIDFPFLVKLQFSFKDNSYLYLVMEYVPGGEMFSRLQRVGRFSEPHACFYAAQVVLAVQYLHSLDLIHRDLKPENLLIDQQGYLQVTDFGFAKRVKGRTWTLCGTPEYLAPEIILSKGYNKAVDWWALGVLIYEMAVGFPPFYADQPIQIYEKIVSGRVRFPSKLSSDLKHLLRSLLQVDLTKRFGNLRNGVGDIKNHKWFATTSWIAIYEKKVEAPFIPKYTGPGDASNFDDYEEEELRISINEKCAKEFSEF

| SMILES | residual activity [%] |
| --- | --- |
| O=C(Nc1ccc(Cl)cc1)c1ccccc1NCc1ccncc1 | 87.4 |
| Oc1ccc(-c2nc(-c3ccc(F)cc3)c(-c3ccncc3)[nH]2)cc1 | 78.4 |
| COc1cc2ncnc(Nc3ccc(F)c(Cl)c3)c2cc1OCCCN1CCOCC1 | 107 |
| COc1ccc(-c2cnc3c(-c4ccsc4)cnn3c2)cc1 | 93.9 |

What follows are compounds tested against PRKCB2 (human) (UniProt P05771) in the same assay as above. Details: compound 0.5 µM; ATP 10 µM.

| SMILES | residual activity [%] |
| --- | --- |
| O=C(Nc1ccc(Cl)cc1)c1ccccc1NCc1ccncc1 | 93.3 |
| Oc1ccc(-c2nc(-c3ccc(F)cc3)c(-c3ccncc3)[nH]2)cc1 | 75 |
| COc1cc2ncnc(Nc3ccc(F)c(Cl)c3)c2cc1OCCCN1CCOCC1 | 100 |
| COc1ccc(-c2cnc3c(-c4ccsc4)cnn3c2)cc1 | 94.3 |

These compounds were tested against PRKCG (human) (UniProt P05129) in the same assay as above. Details: compound 0.5 µM; ATP 10 µM.

| SMILES | residual activity [%] |
| --- | --- |
| O=C(Nc1ccc(Cl)cc1)c1ccccc1NCc1ccncc1 | 102 |
| Oc1ccc(-c2nc(-c3ccc(F)cc3)c(-c3ccncc3)[nH]2)cc1 | 87.9 |
| COc1cc2ncnc(Nc3ccc(F)c(Cl)c3)c2cc1OCCCN1CCOCC1 | 84.2 |
| COc1ccc(-c2cnc3c(-c4ccsc4)cnn3c2)cc1 | 112 |

What follows are compounds tested against PRKD2 (human) (UniProt Q9BZL6) in the same assay as above. Details: compound 0.5 µM; ATP 10 µM.

| SMILES | residual activity [%] |
| --- | --- |
| O=C(Nc1ccc(Cl)cc1)c1ccccc1NCc1ccncc1 | 98 |
| Oc1ccc(-c2nc(-c3ccc(F)cc3)c(-c3ccncc3)[nH]2)cc1 | 79.9 |
| COc1ccc(-c2cnc3c(-c4ccsc4)cnn3c2)cc1 | 97.7 |

These compounds were tested against PRKD3 (human) (UniProt O94806) in the same assay as above. Details: compound 0.5 µM; ATP 10 µM.
Chain of PRKD3 (human) (O94806 whole entry, looked up): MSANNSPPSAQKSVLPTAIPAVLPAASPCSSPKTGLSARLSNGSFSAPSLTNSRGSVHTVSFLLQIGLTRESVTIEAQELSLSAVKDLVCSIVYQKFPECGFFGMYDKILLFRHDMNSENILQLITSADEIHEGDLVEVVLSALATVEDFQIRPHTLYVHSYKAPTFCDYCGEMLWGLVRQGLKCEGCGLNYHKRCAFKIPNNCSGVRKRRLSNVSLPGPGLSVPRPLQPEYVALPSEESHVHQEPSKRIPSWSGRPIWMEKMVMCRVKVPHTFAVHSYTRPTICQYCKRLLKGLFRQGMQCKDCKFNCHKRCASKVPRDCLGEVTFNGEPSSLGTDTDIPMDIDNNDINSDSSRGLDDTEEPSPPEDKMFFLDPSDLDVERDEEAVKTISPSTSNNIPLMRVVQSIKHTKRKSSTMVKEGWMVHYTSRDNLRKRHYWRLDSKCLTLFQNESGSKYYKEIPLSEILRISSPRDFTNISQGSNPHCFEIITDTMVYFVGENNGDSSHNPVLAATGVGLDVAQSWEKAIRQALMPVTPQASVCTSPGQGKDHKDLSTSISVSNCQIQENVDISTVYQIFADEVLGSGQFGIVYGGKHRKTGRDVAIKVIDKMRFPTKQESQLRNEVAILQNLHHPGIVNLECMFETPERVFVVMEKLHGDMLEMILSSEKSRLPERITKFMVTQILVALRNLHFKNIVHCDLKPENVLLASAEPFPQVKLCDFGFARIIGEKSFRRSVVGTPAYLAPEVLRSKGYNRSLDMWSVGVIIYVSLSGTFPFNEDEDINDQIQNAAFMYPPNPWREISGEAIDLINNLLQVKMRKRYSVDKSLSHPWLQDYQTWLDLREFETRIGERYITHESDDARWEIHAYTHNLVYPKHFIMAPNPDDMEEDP

| SMILES | residual activity [%] |
| --- | --- |
| O=C(Nc1ccc(Cl)cc1)c1ccccc1NCc1ccncc1 | 92.1 |
| Oc1ccc(-c2nc(-c3ccc(F)cc3)c(-c3ccncc3)[nH]2)cc1 | 69.8 |
| COc1cc2ncnc(Nc3ccc(F)c(Cl)c3)c2cc1OCCCN1CCOCC1 | 76.3 |
| COc1ccc(-c2cnc3c(-c4ccsc4)cnn3c2)cc1 | 100 |

Each compound was assayed against STK38 (human) (UniProt Q15208) in the same assay as above. Details: compound 0.5 µM; ATP 10 µM.

| SMILES | residual activity [%] |
| --- | --- |
| O=C(Nc1ccc(Cl)cc1)c1ccccc1NCc1ccncc1 | 97.5 |
| Oc1ccc(-c2nc(-c3ccc(F)cc3)c(-c3ccncc3)[nH]2)cc1 | 99.8 |
| COc1cc2ncnc(Nc3ccc(F)c(Cl)c3)c2cc1OCCCN1CCOCC1 | 105 |
| COc1ccc(-c2cnc3c(-c4ccsc4)cnn3c2)cc1 | 102 |

The compounds below were run against TBK1 (human) (UniProt Q9UHD2) in the same assay as above. Details: compound 0.5 µM; ATP 10 µM.
Chain of TBK1 (human) (Q9UHD2 whole entry, looked up): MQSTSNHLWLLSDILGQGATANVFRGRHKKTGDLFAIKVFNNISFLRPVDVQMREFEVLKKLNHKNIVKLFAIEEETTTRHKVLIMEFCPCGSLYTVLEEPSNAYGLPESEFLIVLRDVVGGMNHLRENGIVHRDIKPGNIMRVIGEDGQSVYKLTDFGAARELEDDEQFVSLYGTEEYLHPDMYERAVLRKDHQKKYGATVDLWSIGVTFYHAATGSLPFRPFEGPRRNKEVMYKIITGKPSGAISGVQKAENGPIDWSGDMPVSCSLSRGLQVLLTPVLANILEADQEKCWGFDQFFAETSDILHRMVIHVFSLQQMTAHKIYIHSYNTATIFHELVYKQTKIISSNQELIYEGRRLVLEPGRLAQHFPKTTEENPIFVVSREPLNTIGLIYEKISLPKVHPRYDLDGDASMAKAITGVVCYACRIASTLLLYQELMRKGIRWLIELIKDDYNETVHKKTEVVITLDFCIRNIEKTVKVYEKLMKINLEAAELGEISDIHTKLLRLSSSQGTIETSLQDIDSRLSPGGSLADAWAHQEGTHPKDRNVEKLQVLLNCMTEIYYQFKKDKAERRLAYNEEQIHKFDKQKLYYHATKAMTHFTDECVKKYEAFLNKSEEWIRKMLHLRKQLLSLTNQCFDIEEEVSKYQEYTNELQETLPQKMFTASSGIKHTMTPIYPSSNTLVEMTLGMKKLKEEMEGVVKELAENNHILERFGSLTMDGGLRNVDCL

| SMILES | residual activity [%] |
| --- | --- |
| O=C(Nc1ccc(Cl)cc1)c1ccccc1NCc1ccncc1 | 88.4 |
| Oc1ccc(-c2nc(-c3ccc(F)cc3)c(-c3ccncc3)[nH]2)cc1 | 95.2 |
| COc1cc2ncnc(Nc3ccc(F)c(Cl)c3)c2cc1OCCCN1CCOCC1 | 83.1 |
| COc1ccc(-c2cnc3c(-c4ccsc4)cnn3c2)cc1 | 77.7 |

These compounds were tested against TEC (human) (UniProt P42680) in the same assay as above. Details: compound 0.5 µM; ATP 10 µM.
Chain of TEC (human) (P42680 whole entry, looked up): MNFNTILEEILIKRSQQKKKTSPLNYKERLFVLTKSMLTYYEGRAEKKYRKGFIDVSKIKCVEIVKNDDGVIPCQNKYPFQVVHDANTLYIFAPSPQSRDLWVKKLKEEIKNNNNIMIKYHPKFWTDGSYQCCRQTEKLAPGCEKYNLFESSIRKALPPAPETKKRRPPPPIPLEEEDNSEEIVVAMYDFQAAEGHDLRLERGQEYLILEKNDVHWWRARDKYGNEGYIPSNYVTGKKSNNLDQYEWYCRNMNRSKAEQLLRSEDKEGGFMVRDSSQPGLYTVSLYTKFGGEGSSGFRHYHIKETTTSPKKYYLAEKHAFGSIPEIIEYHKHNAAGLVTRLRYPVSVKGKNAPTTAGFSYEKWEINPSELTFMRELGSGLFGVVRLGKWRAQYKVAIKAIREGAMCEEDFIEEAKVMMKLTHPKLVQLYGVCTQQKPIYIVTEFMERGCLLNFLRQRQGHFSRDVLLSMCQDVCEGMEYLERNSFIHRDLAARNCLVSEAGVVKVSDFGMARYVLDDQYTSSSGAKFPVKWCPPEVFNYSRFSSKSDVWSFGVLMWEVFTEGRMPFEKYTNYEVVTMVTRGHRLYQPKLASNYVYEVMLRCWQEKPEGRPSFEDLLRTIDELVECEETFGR

| SMILES | residual activity [%] |
| --- | --- |
| O=C(Nc1ccc(Cl)cc1)c1ccccc1NCc1ccncc1 | 134 |
| Oc1ccc(-c2nc(-c3ccc(F)cc3)c(-c3ccncc3)[nH]2)cc1 | 106 |
| COc1cc2ncnc(Nc3ccc(F)c(Cl)c3)c2cc1OCCCN1CCOCC1 | 104 |
| COc1ccc(-c2cnc3c(-c4ccsc4)cnn3c2)cc1 | 124 |

Each compound was assayed against TLK2 (human) (UniProt Q86UE8) in the same assay as above. Details: compound 0.5 µM; ATP 10 µM.
Chain of TLK2 (human) (Q86UE8 whole entry, looked up): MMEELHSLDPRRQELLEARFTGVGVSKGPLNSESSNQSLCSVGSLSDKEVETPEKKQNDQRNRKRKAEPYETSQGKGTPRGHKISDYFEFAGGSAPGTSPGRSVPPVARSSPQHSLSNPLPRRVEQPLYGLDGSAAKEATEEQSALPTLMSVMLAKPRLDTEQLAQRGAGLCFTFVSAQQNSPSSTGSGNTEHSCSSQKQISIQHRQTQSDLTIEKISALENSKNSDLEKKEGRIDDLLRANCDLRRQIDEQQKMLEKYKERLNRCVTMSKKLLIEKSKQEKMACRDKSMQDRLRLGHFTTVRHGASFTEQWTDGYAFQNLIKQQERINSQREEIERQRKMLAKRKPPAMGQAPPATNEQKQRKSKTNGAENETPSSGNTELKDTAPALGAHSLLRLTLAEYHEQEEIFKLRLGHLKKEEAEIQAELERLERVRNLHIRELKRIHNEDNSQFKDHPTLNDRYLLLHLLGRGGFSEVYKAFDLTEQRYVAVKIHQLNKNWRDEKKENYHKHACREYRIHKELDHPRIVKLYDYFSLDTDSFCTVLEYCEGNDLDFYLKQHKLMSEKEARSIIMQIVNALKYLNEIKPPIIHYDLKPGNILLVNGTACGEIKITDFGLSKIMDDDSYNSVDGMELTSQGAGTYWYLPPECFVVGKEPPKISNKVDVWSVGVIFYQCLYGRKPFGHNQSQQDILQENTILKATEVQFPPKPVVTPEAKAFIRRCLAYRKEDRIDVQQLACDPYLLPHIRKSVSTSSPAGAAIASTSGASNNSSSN

| SMILES | residual activity [%] |
| --- | --- |
| O=C(Nc1ccc(Cl)cc1)c1ccccc1NCc1ccncc1 | 97.3 |
| Oc1ccc(-c2nc(-c3ccc(F)cc3)c(-c3ccncc3)[nH]2)cc1 | 97.4 |
| COc1cc2ncnc(Nc3ccc(F)c(Cl)c3)c2cc1OCCCN1CCOCC1 | 80.4 |
| COc1ccc(-c2cnc3c(-c4ccsc4)cnn3c2)cc1 | 96.2 |

What follows are compounds tested against ULK1 (human) (UniProt O75385) in the same assay as above. Details: compound 0.5 µM; ATP 10 µM.

| SMILES | residual activity [%] |
| --- | --- |
| O=C(Nc1ccc(Cl)cc1)c1ccccc1NCc1ccncc1 | 86.9 |
| Oc1ccc(-c2nc(-c3ccc(F)cc3)c(-c3ccncc3)[nH]2)cc1 | 89 |
| COc1cc2ncnc(Nc3ccc(F)c(Cl)c3)c2cc1OCCCN1CCOCC1 | 93 |
| COc1ccc(-c2cnc3c(-c4ccsc4)cnn3c2)cc1 | 79 |

Each compound was assayed against ULK3 (human) (UniProt Q6PHR2) in the same assay as above. Details: compound 0.5 µM; ATP 10 µM.

| SMILES | residual activity [%] |
| --- | --- |
| O=C(Nc1ccc(Cl)cc1)c1ccccc1NCc1ccncc1 | 84.7 |
| Oc1ccc(-c2nc(-c3ccc(F)cc3)c(-c3ccncc3)[nH]2)cc1 | 85.5 |
| COc1cc2ncnc(Nc3ccc(F)c(Cl)c3)c2cc1OCCCN1CCOCC1 | 108 |
| COc1ccc(-c2cnc3c(-c4ccsc4)cnn3c2)cc1 | 79.4 |
